# Target: T1, hCCR2b (Homo sapiens, UniProt P41597)
# T1 sequence (P41597 1-360 isoform P41597-2): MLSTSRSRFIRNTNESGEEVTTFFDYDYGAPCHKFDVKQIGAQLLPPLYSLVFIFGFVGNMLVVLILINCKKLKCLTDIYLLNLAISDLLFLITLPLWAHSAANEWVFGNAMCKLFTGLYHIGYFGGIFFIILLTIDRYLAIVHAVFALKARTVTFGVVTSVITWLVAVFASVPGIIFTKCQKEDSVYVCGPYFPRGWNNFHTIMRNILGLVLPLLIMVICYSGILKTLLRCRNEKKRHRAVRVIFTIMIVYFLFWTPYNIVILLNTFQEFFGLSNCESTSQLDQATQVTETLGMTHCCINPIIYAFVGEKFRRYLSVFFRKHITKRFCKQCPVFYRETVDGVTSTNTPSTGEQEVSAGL
# Assay: CCR2 binding assay ([125I]MCP-1, SPA, CHO cell membranes)
# Set-up: expressed in transfected cells; host or cells: CHO cells (membrane preparation)
# Details: membranes from CHO cells expressing hCCR2b, 50 pM [125I]MCP-1; read-out: Binding hCCR2 (Ki)
# Method: Membranes were prepared from CHO cells expressing mCCR2b or hCCR2b for use in ligand binding studies. Cells were suspended in 50mM Tris-HCL, pH 7.4, 2 mM EDTA, 250 mM Sucrose and 1x Complete EDTA-free protease inhibitor cocktail (Roche) (Buffer A), and disrupted at 4°C by N2 decompression using a cell disruption bomb (Parr Instrument). Following centrifugation at 200 RCF for 10 min at 4°C, the supernatant was suspended in buffer A and centrifuged again at 19000 RPM (RCSC rotor SS34 code 05 Sorvall Instruments DUPONT) for 90 min at 4°C. The pellet was then suspended in 10 mM HEPES, pH 7.4, 1 mM EDTA, 250 mM Sucrose, and 1x Complete EDTA-free protease inhibitor cocktail (Buffer B) and homogenized using a potter. Membranes were flash frozen in liquid N2 and stored at -80°C. [125I] Monocyte Chemoattractant Protein -1 (MCP-1) (25µCi; Perkin Elmer) was added to test compounds in DMSO (1% final). Membranes and WGA SPA beads (GE Healthcare) were added to give a final volume of 100 µl in 96-well plates with assay concentrations of 50 pM or 100 pM [125I]Monocyte Chemoattractant Protein -1 (respectively for hCCR2b or mCCR2b), 50 mM HEPES, pH 7.4, 5 mM MgCl2, 1 mM CaCl2, 0.1% BSA, 1-5 µg/well of membranes and 100 µg/well of WGA SPA beads. Binding was performed for 90 min at RT with strong agitation of speed 5 (Heidolph Titramax 100 SCITEC) and bound radioactivity was measured on a PerkinElmer 1450 MicroBeta counter. Specific binding was calculated by subtracting remaining radioactivity in the presence of 1000-fold excess of unlabeled compound. Binding data were analyzed using the Genedata Screener® software.
row,SMILES,Ki [µM]
1,"CCN1CCC2(CC1)OC(=O)C(C)=C2C(=O)N1CCN(c2cncc(C(F)(F)F)c2)CC1 [Compound 60, 8-ethyl-3-methyl-4-({4-[5-(trifluoromethyl)pyridin-3-yl]piperazin-1-yl}carbonyl)-1-oxa-8-azaspiro[4.5]dec-3-en-2-one]",0.05 to 0.1
2,"CCN1CCC2(CC1)OC(=O)C(C)=C2C(=O)N1CCN(c2cccc(OC(F)(F)F)c2)CC1 [Compound 81, 8-ethyl-3-methyl-4-({4-[3-(trifluoromethoxy)phenyl]piperazin-1-yl}carbonyl)-1-oxa-8-azaspiro[4.5]dec-3-en-2-one]",< 0.05
3,"COC1COCCC1N1CCC2(CC1)OC(=O)C(C)=C2C(=O)N1CCc2ccc(C(F)(F)F)cc2C1 (single isomer, unassigned; (+)) [Compound 41, (+)-1,5-anhydro-3,4-dideoxy-2-O-methyl-3-(3-methyl-2-oxo-4-{[7-(trifluoromethyl)-3,4-dihydroisoquinolin-2(1H)-yl]carbonyl}-1-oxa-8-azaspiro[4.5]dec-3-en-8-yl)-pentitol]",< 0.05
4,"CC1=C(C(=O)N2CCN(c3cccc(C(F)(F)F)c3)CC2)C2(CCN(CCC(=O)O)CC2)OC1=O [Compound 10, 3-[3-methyl-2-oxo-4-({4-[3-(trifluoromethyl)phenyl]piperazin-1-yl}carbonyl)-1-oxa-8-azaspiro[4.5]dec-3-en-8-yl]propanoic acid]",0.1 to 0.5
5,"CCN1CCC2(CC1)OC(=O)C(C)=C2C(=O)Nc1ccc(-n2ccc(C(F)(F)F)n2)cc1 [Compound 75, 8-ethyl-3-methyl-2-oxo-N-{4-[3-(trifluoromethyl)-1H-pyrazol-1-yl]phenyl}-1-oxa-8-azaspiro[4.5]dec-3-ene-4-carboxamide]",0.5 to 2
6,"CC1=C(C(=O)N2CCc3ccc(C(F)(F)F)cc3C2)C2(CCN(CCO)CC2)OC1=O [Compound 20, 8-(2-hydroxyethyl)-3-methyl-4-{[7-(trifluoromethyl)-3,4-dihydroisoquinolin-2(1H)-yl]carbonyl}-1-oxa-8-azaspiro[4.5]dec-3-en-2-one]",< 0.05
7,"CC1=C(C(=O)N2CCc3ccc(C(F)(F)F)cc3C2)C2(CCN(CCF)CC2)OC1=O [Compound 17, 8-(2-fluoroethyl)-3-methyl-4-{[7-(trifluoromethyl)-3,4-dihydroisoquinolin-2(1H)-yl]carbonyl}-1-oxa-8-azaspiro[4.5]dec-3-en-2-one]",< 0.05
8,"CC1=C(C(=O)N2CCc3ccc(C(F)(F)F)cc3C2)C2(CCN(C3CCC(O)CC3)CC2)OC1=O (stereo not shown) [Compound 31, 8-(4-hydroxycyclohexyl)-3-methyl-4-{[7-(trifluoromethyl)-3,4-dihydroisoquinolin-2(1H)-yl]carbonyl}-1-oxa-8-azaspiro[4.5]dec-3-en-2-one]",< 0.05
9,"CCN1CCC2(CC1)OC(=O)C(C)=C2C(=O)N1CCC(c2cccc(C(F)(F)F)c2)C1 (stereo not shown) [Compound 55, 8-ethyl-3-methyl-4-({3-[3-(trifluoromethyl)phenyl]pyrrolidin-1-yl}carbonyl)-1-oxa-8-azaspiro[4.5]dec-3-en-2-one]",0.1 to 0.5
10,"CCN1CCC2(CC1)OC(=O)C(C)=C2C(=O)N1CCN(c2cccc(F)c2)CC1 [Compound 80, 8-ethyl-4-{[4-(3-fluorophenyl)piperazin-1-yl]carbonyl}-3-methyl-1-oxa-8-azaspiro[4.5]dec-3-en-2-one]",0.5 to 2
11,"COc1ccccc1CCN1CCC2(CC1)OC(=O)C(C)=C2C(=O)N1CCN(c2cccc(C(F)(F)F)c2)CC1 [Compound 63, 8-[2-(2-methoxyphenyl)ethyl]-3-methyl-4-({4-[3-(trifluoromethyl)phenyl]piperazin-1-yl}carbonyl)-1-oxa-8-azaspiro[4.5]dec-3-en-2-one]",< 0.05
12,"CC1=C(C(=O)N2CCc3ncc(C(F)(F)F)cc3C2)C2(CCN(C)CC2)OC1=O [Compound 122, 3,8-dimethyl-4-{[3-(trifluoromethyl)-7,8-dihydro-1,6-naphthyridin-6(5H)-yl]carbonyl}-1-oxa-8-azaspiro[4.5]dec-3-en-2-one]",< 0.05
13,"CCN1CCC2(CC1)OC(=O)C(C)=C2C(=O)NCCc1ccc(C(F)(F)F)cc1 [Compound 100, 8-ethyl-3-methyl-2-oxo-N-{2-[4-(trifluoromethyl)phenyl]ethyl}-1-oxa-8-azaspiro[4.5]dec-3-ene-4-carboxamide]",0.5 to 2
14,"CC1=C(C(=O)N2CCN(c3cccc(C(F)(F)F)c3)CC2)C2(CCN(Cc3ccccc3)CC2)OC1=O [Compound 109, 8-benzyl-3-methyl-4-({4-[3-(trifluoromethyl)phenyl]piperazin-1-yl}carbonyl)-1-oxa-8-azaspiro[4.5]dec-3-en-2-one]",0.1 to 0.5
15,"CCN1CCC2(CC1)OC(=O)C(C)=C2C(=O)N1CCN(c2cc(Cl)cc(C(F)(F)F)c2)CC1 [Compound 86, 4-({4-[3-chloro-5-(trifluoromethyl)phenyl]piperazin-1-yl}carbonyl)-8-ethyl-3-methyl-1-oxa-8-azaspiro[4.5]dec-3-en-2-one]",< 0.05
16,"CCN1CCC2(CC1)OC(=O)C(C)=C2C(=O)N1CCC(Nc2ccc(C(F)(F)F)cc2)C1 (stereo not shown) [Compound 83, 8-ethyl-3-methyl-4-[(3-{[4-(trifluoromethyl)phenyl]amino}pyrrolidin-1-yl)carbonyl]-1-oxa-8-azaspiro[4.5]dec-3-en-2-one]",< 0.05

# Second part, the compound after the results:
row,Ki [µM],SMILES
1,< 0.05,"CCN1CCC2(CC1)OC(=O)C(C)=C2C(=O)N1C[C@@H]2C[C@H]1CN2c1cc(C(F)(F)F)ccn1 [Compound 71, 8-ethyl-3-methyl-4-({(1S,4S)-5-[4-(trifluoromethyl)pyridin-2-yl]-2,5-diazabicyclo[2.2.1]hept-2-yl}carbonyl)-1-oxa-8-azaspiro[4.5]dec-3-en-2-one]"
2,0.1 to 0.5,"CO[C@@H]1COCC[C@@H]1N1CCC2(CC1)OC(=O)C(C)=C2C(=O)N1CCc2ncc(C(F)(F)F)cc2C1 (single isomer, unassigned) [Compound 44, (-)-1,5-anhydro-2,3-dideoxy-4-O-methyl-3-(3-methyl-2-oxo-4-{[3-(trifluoromethyl)-7,8-dihydro-1,6-naphthyridin-6(5H)-yl]carbonyl}-1-oxa-8-azaspiro[4.5]dec-3-en-8-yl)-pentitol]"
3,< 0.05,"CC1=C(C(=O)N2CCc3ccc(C(F)(F)F)cc3C2)C2(CCN(CC3CCOC3)CC2)OC1=O (stereo not shown) [Compound 33, 3-methyl-8-(tetrahydrofuran-3-ylmethyl)-4-{[7-(trifluoromethyl)-3,4-dihydroisoquinolin-2(1H)-yl]carbonyl}-1-oxa-8-azaspiro[4.5]dec-3-en-2-one]"
4,< 0.05,"CC1=C(C(=O)N2CCN(c3cccc(C(F)(F)F)c3)CC2)C2(CCN(CC3CCOC3)CC2)OC1=O (stereo not shown) [Compound 22, 3-methyl-8-(tetrahydrofuran-3-ylmethyl)-4-({4-[3-(trifluoromethyl)phenyl]piperazin-1-yl}carbonyl)-1-oxa-8-azaspiro[4.5]dec-3-en-2-one]"
5,< 0.05,"CC1=C(C(=O)N2CCN(c3cccc(C(F)(F)F)c3)CC2)C2(CCN(CCCc3ccccc3)CC2)OC1=O [Example 5, 3-methyl-8-(3-phenylpropyl)-4-({4-[3-(trifluoromethyl)phenyl]piperazin-1-yl}carbonyl)-1-oxa-8-azaspiro[4.5]dec-3-en-2-one]"
6,< 0.05,"CC1=C(C(=O)N2CCc3ccc(C(F)(F)F)cc3C2)C2(CCN(C)CC2)OC1=O [Compound 27, 3,8-dimethyl-4-{[7-(trifluoromethyl)-3,4-dihydroisoquinolin-2(1H)-yl]carbonyl}-1-oxa-8-azaspiro[4.5]dec-3-en-2-one]"
7,< 0.05,"COc1ccc(C2(O)CCC(N3CCC4(CC3)OC(=O)C(C)=C4C(=O)N3CCc4ccc(C(F)(F)F)cc4C3)CC2)cn1 (stereo not shown) [Compound 25, 8-[4-hydroxy-4-(6-methoxypyridin-3-yl)cyclohexyl]-3-methyl-4-{[7-(trifluoromethyl)-3,4-dihydroisoquinolin-2(1H)-yl]carbonyl}-1-oxa-8-azaspiro[4.5]dec-3-en-2-one]"
8,< 0.05,"CC1=C(C(=O)N2CCc3ccc(C(F)(F)F)cc3C2)C2(CCN(C(C)(C)C)CC2)OC1=O [Compound 77, 8-tert-butyl-3-methyl-4-{[7-(trifluoromethyl)-3,4-dihydroisoquinolin-2(1H)-yl]carbonyl}-1-oxa-8-azaspiro[4.5]dec-3-en-2-one]"
9,0.5 to 2,"CCN1CCC2(CC1)OC(=O)C(C)=C2C(=O)Nc1ccc(-c2cccc(C(F)(F)F)c2)cc1 [Compound 98, 8-ethyl-3-methyl-2-oxo-N-[3'-(trifluoromethyl)biphenyl-4-yl]-1-oxa-8-azaspiro[4.5]dec-3-ene-4-carboxamide]"
